In publication PMC10013843 (Molecular psychiatry, 2022):

Key:
[1] = target: T1, HCN1 channel (Homo sapiens, UniProt O60741); experiment: HCN1 channel functional interaction; format: biochemical
T1 sequence (O60741 1-890): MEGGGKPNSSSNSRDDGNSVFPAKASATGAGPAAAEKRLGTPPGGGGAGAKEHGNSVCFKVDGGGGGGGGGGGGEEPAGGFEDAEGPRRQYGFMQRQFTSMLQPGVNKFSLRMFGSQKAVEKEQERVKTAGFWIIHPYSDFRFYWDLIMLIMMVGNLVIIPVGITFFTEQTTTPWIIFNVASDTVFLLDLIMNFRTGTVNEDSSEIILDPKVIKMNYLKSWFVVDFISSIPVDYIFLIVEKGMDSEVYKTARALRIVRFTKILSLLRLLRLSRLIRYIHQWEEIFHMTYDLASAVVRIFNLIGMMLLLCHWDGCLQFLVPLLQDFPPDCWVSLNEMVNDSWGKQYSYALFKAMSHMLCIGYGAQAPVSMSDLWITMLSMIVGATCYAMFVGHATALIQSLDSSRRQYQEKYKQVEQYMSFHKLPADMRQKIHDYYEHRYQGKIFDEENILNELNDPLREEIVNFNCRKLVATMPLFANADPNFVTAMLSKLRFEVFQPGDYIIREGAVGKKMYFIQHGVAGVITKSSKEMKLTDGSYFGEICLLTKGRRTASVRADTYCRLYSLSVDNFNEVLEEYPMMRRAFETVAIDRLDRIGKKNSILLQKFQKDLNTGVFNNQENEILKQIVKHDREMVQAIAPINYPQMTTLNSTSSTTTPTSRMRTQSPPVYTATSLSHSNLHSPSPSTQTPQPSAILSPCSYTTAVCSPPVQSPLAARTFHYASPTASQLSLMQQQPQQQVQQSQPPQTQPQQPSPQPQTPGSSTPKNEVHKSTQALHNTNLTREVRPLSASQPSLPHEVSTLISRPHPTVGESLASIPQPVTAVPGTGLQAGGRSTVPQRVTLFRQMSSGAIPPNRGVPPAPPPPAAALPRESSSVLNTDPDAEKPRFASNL

[2] = target: T1, HCN1 channel; conditions: cited from earlier work
[3] = target: sigma-1 receptors (Rattus norvegicus, UniProt Q9R0C9); conditions: cited from earlier work
sigma-1 receptors, sequence (Q9R0C9 whole entry): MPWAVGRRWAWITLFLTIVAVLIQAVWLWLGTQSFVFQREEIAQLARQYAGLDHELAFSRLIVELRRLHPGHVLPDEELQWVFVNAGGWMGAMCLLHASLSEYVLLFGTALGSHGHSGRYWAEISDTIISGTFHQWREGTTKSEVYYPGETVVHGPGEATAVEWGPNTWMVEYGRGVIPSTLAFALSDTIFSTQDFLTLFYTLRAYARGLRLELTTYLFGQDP

[4] = test system: rats; conditions: cited from earlier work
[5] = target: mu-opioid receptors, MOR (Rattus norvegicus, UniProt P33535); conditions: cited from earlier work
mu-opioid receptors, MOR, sequence (P33535 whole entry): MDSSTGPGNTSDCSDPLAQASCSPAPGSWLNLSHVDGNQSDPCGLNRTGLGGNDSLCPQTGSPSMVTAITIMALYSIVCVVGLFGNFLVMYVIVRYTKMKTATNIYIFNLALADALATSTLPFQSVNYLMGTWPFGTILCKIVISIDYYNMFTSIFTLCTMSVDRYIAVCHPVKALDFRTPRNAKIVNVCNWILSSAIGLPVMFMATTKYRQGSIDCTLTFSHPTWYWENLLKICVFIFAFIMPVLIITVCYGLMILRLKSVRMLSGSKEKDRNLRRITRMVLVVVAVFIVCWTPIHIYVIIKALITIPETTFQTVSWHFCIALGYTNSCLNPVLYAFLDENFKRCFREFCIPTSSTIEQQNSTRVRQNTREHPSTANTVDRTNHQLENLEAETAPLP

[6] = target: kappa-opioid receptors, KOR (Rattus norvegicus, UniProt P34975); conditions: cited from earlier work
kappa-opioid receptors, KOR, sequence (P34975 whole entry): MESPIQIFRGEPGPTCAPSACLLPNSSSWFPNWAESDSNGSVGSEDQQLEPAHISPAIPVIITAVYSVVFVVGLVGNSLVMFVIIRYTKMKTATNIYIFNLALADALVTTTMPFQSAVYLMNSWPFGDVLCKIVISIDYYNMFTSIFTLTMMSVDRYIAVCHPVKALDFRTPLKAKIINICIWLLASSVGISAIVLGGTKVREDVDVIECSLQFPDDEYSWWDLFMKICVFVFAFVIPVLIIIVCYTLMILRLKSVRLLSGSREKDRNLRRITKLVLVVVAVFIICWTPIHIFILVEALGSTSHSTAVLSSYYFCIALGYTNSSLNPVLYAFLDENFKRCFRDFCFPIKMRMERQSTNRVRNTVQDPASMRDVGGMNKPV

[7] = target: MOR (OPRM1) (Homo sapiens, UniProt P35372); conditions: cited from earlier work
MOR (OPRM1), sequence (P35372 whole entry): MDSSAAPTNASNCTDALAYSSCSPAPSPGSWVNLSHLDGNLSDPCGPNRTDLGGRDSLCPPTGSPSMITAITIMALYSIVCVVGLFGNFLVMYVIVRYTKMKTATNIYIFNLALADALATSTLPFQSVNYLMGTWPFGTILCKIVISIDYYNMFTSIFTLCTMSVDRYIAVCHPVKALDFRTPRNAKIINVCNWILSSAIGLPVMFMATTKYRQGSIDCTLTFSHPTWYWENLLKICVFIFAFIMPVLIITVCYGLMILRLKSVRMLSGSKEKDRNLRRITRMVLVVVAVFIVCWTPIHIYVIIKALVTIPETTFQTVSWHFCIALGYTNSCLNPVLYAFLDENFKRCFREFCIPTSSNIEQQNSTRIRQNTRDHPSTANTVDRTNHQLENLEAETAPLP

[8] = target: KOR (OPRK1) (Homo sapiens, UniProt P41145); conditions: cited from earlier work
KOR (OPRK1), sequence (P41145 whole entry): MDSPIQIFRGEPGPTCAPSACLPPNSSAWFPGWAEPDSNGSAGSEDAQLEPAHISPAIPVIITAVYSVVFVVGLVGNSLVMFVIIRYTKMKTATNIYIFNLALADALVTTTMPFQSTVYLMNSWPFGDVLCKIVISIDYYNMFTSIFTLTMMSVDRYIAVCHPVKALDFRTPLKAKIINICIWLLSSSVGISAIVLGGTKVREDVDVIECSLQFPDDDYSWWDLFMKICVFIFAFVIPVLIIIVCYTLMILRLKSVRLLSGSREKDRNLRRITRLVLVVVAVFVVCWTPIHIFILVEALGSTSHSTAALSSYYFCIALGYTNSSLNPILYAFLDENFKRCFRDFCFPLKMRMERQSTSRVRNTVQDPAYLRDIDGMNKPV

[9] = test system: MOR and KOR; conditions: cited from earlier work
[10] = test system: rats; experiment: Heroin self-administration and substitution; format: in vivo, rat; conditions: 0.5 mg/kg/inf IV
[11] = test system: rats; conditions: cited from earlier work; remark: listed apart in the source

Compound: CNC1(c2ccccc2Cl)CCCCC1=O (racemic) [ketamine, (R,S)-ketamine]
- interaction with the HCN1 channel [1]: neither (2R,6R)-HNK nor ketamine interacted
- effect on HCN1 channels [2]: inhibit
- binding to sigma receptors [3]: weak binding

Compound: N[C@@]1(c2ccccc2Cl)CCC[C@@H](O)C1=O [(2S,6S;2R,6R)-HNK, (2S,6S;2R,6R)-Hydroxynorketamine]
- effect on acute morphine nociception or tolerance [4]: no effect

Compound: CN[C@@]1(c2ccccc2Cl)CCCCC1=O [(R)-ketamine]
- binding to mu (MOR) opioid receptors [5]: bind
- binding to kappa (KOR) opioid receptors [6]: bind
- MOR signaling, inhibition of cAMP accumulation [7]: partial agonists
- KOR signaling, inhibition of cAMP accumulation [8]: partial agonists
- β-arrestin signaling [9]: do not activate

Compound: CN[C@]1(c2ccccc2Cl)CCCCC1=O [(S)-ketamine]
- pressing on first session after heroin substitution [10]: increased their pressing
- self-administration on successive sessions after heroin substitution [10]: escalation of self-administration
- binding to mu (MOR) opioid receptors [5]: bind
- binding to kappa (KOR) opioid receptors [6]: bind
- β-arrestin signaling [9]: do not activate
- self-administration in rats [11]: is self-administered
